Assay results as given in patent publication US10905671B2, “Method of using omega 3 fatty acids to treat diseases which involve damage to the nervous system” (priority 2013, dated 2021).

Columns and labels:
scleritis = assay: Patients with scleritis (Example 3); assay type: in vivo, human; details: two patients; 10 mg
[1] = test system: moderate thyroid eye disease; assay: Patients with moderate thyroid eye disease (Example 5); assay type: in vivo, human; details: 3 patients; 10 mg
Experimental: The invention was used in 3 patients with moderate thyroid eye disease. The patients were controlled with 10 mg of prednisolone or with 7.5 g to 10 g of EPA and DHA and having a AA/EPA ratio between 1 to 1.5.

In the case of `C[C@]12C=CC(=O)C=C1CC[C@@H]1[C@@H]2[C@@H](O)C[C@@]2(C)[C@H]1CC[C@]2(O)C(=O)CO` [prednisolone], the control of scleritis (scleritis) is reported as “controlled”, the side effects (scleritis) is reported as “had to stop due to the side effects” and the “control of thyroid eye disease” value [1] is reported as “controlled”.
